Reference: US8021831B2, “Taxane chemosensitivity prediction test” (Board of Regents, The University of Texas System, priority 2003, dated 2011)

Tests used:
MCF-7 = assay: Paclitaxel cytotoxicity test (MTT assay); type: cell-based, human; settings: 1, 5, 10, 50 or 100 nM paclitaxel, 72 hr
Protocol: (§1) FIG. 5. Sensitivities of cell lines to Paclitaxel were judged according to a graph analysis of the Paclitaxel cytotoxicity test. […] The Paclitaxel cytotoxicity test was performed as follows. The cells were cultivated in wells of a 96-well culture plate in presence of 1, 5, 10, 50 or 100 nM Paclitaxel. After 72 hr cultivation, cell survival was measured by the MTT assay.
(§2) Drug sensitivity assays. Cells were detached by trypsinization, seeded at 2.0×10^3 cells/well in a 96-well microtiter plate, and treated with various concentrations of paclitaxel (1, 5, 10, 50, 100 and 1000 nM). Seventy-two hr later, the effects on cell growth were examined by 3-(4,5-dimethylthiazol-2-yl)-2,5-diphenyl tetrazolium bromide (MTT) assay: 20 μl of MTT solution (5 mg/ml in phosphate-buffered saline; Sigma Aldrich) was added to each well, and the cells were incubated for 4 hr at 37° C. The MTT-formazan formed by metabolically viable cells was dissolved in 100 μl of cell lysis buffer, and […] was monitored using a microplate at a wavelength of 570 nm. The percentage of cell growth was calculated by defining the absorption of cells not treated with paclitaxel (control) as 100%.
(§3) Sensitivities of four human breast cancer cell lines to paclitaxel were judged according to a graph analysis of the paclitaxel cytotoxicity test (FIG. 5). […] The paclitaxel cytotoxicity test was performed as follows. The cells were cultivated in wells of a 96-well culture plate in presence of 1, 5, 10, 50 or 100 nM paclitaxel. After 72 hr cultivation, cell survival was measured by the MTT assay.

MDA-MB231 = assay: Paclitaxel cytotoxicity test (MTT assay); type: cell-based, human; settings: 1, 5, 10, 50 or 100 nM paclitaxel, 72 hr
Protocol: as §1, §2, §3

MDA-MB435 = assay: Paclitaxel cytotoxicity test (MTT assay); type: cell-based, human; settings: 1, 5, 10, 50 or 100 nM paclitaxel, 72 hr
Protocol: as §1, §2, §3

T47D = assay: Paclitaxel cytotoxicity test (MTT assay); type: cell-based, human; settings: 1, 5, 10, 50 or 100 nM paclitaxel, 72 hr
Protocol: as §1, §2, §3

MCF-7 cells [1] = assay: Mitotic indices after paclitaxel treatment; type: cell-based, human; settings: MCF-7 control (siRNA/control) cells; paclitaxel 100 nM; 24 hr after treatment
Protocol: FIG. 1C—Mitotic indices of each cell after treatment with paclitaxel. Twenty-four hr after transfection, cells were treated with paclitaxel (100 nM) and harvested at the indicated times.
Calculation of mitotic indices. Cells with mitotic condensed chromatin were visualized by staining with 10 μM Hoechst 33342 dye (Aventis Pharmaceuticals Inc., Bridgewater, N.J.) in conjunction with 10 μg/ml propidium iodide; the propidium iodide was incorporated into dead cells only. […] The cells were harvested at 12, 24, and 36 hr after transfection and the mitotic indices calculated.
(§8) To test the effects of suppression of Mad2, BubR1, or both on the spindle assembly checkpoint activated by paclitaxel, the mitotic indices were determined and the Cdk1 activity measured, both of which reflect the status of this checkpoint.

[2] = test system: Cdk1 activity in MCF-7 cells; assay: Cdk1 kinase assay after paclitaxel treatment; type: cell-based, human; settings: MCF-7 control cells; paclitaxel 100 nM; 24 hr after treatment
Protocol: Twenty-four hr after transfection, cells were treated with paclitaxel (100 nM) and harvested at the indicated times. FIG. 1D—Cyclin-dependent kinase-1 (Cdk1) activity after treatment with paclitaxel in each cell. Twenty-four hr after transfection, cells were treated with paclitaxel (100 nM) and harvested at the indicated times. Activity of Cdk1 in the lysates was determined as described in Experimental procedures.
Cdk1 kinase assay. The Cdk1 protein kinase assay was performed using the SignaTECT cdc2 protein assay system (Promega, Madison, Wis.). Briefly, the harvested cells were lysed with the extraction buffer (50 mM Tris [pH 7.4], 150 mM NaCl, 0.1% Triton X-100, and 1 mM EDTA) containing protease inhibitors (100 μg/ml aprotinin and 0.5 mM phenylmethane sulphonyl fluoride) and phosphatase inhibitors (50 mM NaF). These lysates were conjugated with a substrate consisting of cdc2-specific biotinylated peptide derived from histone H1 and [γ-^32P] ATP, and incubated at 30° C. for 10 min. […] After several washings, each captured membrane was placed into a separate vial and analyzed using a liquid scintillation counter (Beckman Coulter, Palo Alto, Calif.).
as §8

MCF-7 cells [3] = assay: Cell death analysis (trypan blue exclusion); type: cell-based, human; settings: MCF-7 control cells, paclitaxel 100 nM, 48 hr
Protocol: FIG. 2B—MCF-7 cells transfected with siRNA/Mad2, BubR1, or both were examined for cell death induced by paclitaxel. Twenty-four hr after transfection, cells were treated with paclitaxel (100 nM) for 48 hr. Cell viability was assessed using trypan blue exclusion assay.
Cell death analysis. Cell death was evaluated using the trypan blue dye exclusion assay. Briefly, cells were harvested using trypsin and stained with 0.4% trypan blue dye (Sigma-Aldrich Chemical Co., St. Louis, Mo.). Trypan blue-positive and -negative cells were counted using a hemacytometer (Hausser Scientific, Horsham, Pa.) under a phase-contrast microscope (Fisher Scientific, Pittsburgh, Pa.). The results of each assay were expressed in terms of the percentage of dead cells relative to the total number of cells. Individual experiments were performed in triplicate.
Next, to determine whether these resistances were due to the reduction of cell death induced by paclitaxel, the inventors assessed the population of cell death using trypan blue exclusion.

[4] = test system: susceptible tumor (tumor of MDA-MB231); assay: Tumor volume in tumor-bearing nude mice, susceptible tumor; type: in vivo; settings: 20 mg paclitaxel per day i.p.
Protocol: (§4) FIG. 7. The susceptible and resistant cells (1×10^7 cells/mouse) were inoculated into nude mice. When the tumor volume reached more than 300 mm^3, 20 mg of Paclitaxel per day was intraperitoneally administered on five consecutive days (Days 34-38 after the inoculations). The tumor size was recorded on Days 20-43. […] By contrast, the volume of resistant tumor remained at 350 mm^3 until Day 43.
(§5) To further confirm the above in vitro results, an in vivo validation study was performed. The susceptible and resistant cells were inoculated into nude mice. When the tumor volume reached more than 300 mm^3, 20 mg of paclitaxel per day was intraperitoneally administered on five consecutive days (Days 34-38 after the inoculations). The tumor size was recorded on days 20-43. […] By contrast, volume of resistant tumors remained at 350 mm^3 until day 43.
as §4, with “The” for “FIG. 7. The”, “of paclitaxel” for “of Paclitaxel”, “on days” for “on Days”, “until day 43 (FIG. 7).” for “until Day 43.”

[5] = test system: resistant tumor (tumor of T47D); assay: Tumor volume in tumor-bearing nude mice, resistant tumor; type: in vivo; settings: 20 mg paclitaxel per day i.p., Days 34-38, until day 43
Protocol: as §4, §5
as §4, with “The” for “FIG. 7. The”, “of paclitaxel” for “of Paclitaxel”, “on days” for “on Days”, “until day 43 (FIG. 7).” for “until Day 43.”

[6] = test system: CDK1 in tumor of MDA-MB231; assay: Cell cycle profiling of tumor tissue lysates, CDK1 specific activity; type: in vivo, nude mice; settings: 24 hr after treatment
Protocol: (§6) FIG. 8. Lysates of the tumor tissues from tumor-bearing mice were subjected to cell cycle profiling. […] These are (A1) CDK1 specific activity 24 hr after treatment; (A2) CDK2 specific activity before treatment; (E5) MAD2 expression before treatment; (E3) Cyclin E expression before treatment; (E4) p21 expression before treatment; and (E1) CDK6 expression before treatment. The value plotted in the graph was calculated by dividing with the bigger raw value between two tumors on the each parameter.
(§7) Enzyme activity analyses of cell cycle profiling. Enzyme activity analyses of cell cycle profiling were performed using a non-radioisotopic method. Cell lysates were prepared as described for expression analysis. […] After three washes with washing buffer (0.1% NP-40, 50 mM Tris-Cl [pH 7.4]), 50 μl of the substrate mixture containing 10 μg of protein substrate, 5 mM adenosine 5′-O-(3-thiotriphosphate) (Sigma), 20 mM Tris-Cl (pH 7.4), and 0.1% Triton X-100 was added to the beads and incubated under continuous shaking at 37° C. for 10 min. Histone H1 (Upstate Biotechnology, Lake Placid, N.Y., USA) was used as the protein substrate for CDK1 and CDK2, and recombinant RB protein (amino acids 769-921) for CDK4 and CDK6. After the beads were removed, the introduced monothiophosphates in the substrate were further labeled by incubation with 10 mM iodoacetyl-biotin (Pierce) in coupling buffer (100 mM Tris-Cl [pH 8.5], 1 mM EDTA) for 90 min in the dark at room temperature. The reaction was quenched with β-mercaptoethanol, and 0.4 μg of the substrate was applied to the wells of the dot-blot device. The wells were blocked with 4% bovine serum albumin (BSA) for 30 min, then incubated with avidin-FITC (Vector) for 1 hr at 37° C.

CDK1 in tumor of T47D = assay: as above; type: in vivo, nude mice; settings: 24 hr after treatment
Protocol: as §6, §7

[7] = test system: advanced drug refractory ovarian cancer; settings: advanced drug refractory ovarian cancer patients; cited from earlier work
[8] = test system: previously treated metastatic breast cancer; settings: previously treated metastatic breast cancer patients; cited from earlier work
various lung cancers = settings: patients; cited from earlier work
microtubule site = settings: higher than paclitaxel, same microtubule site; cited from earlier work

SMILES | Sensitivity of cell line to paclitaxel (judged by graph analysis of cytotoxicity test) (MCF-7) | Sensitivity of cell line to paclitaxel (judged by graph analysis of cytotoxicity test) (MDA-MB231) | Sensitivity of cell line to paclitaxel (judged by graph analysis of cytotoxicity test) (MDA-MB435) | Sensitivity of cell line to paclitaxel (judged by graph analysis of cytotoxicity test) (T47D) | control cells arrested at mitosis (MCF-7 cells [1]) | Cdk1 activity [2] | levels of cell death (MCF-7 cells [3]) | tumor volume before decrease (start value) ([4]; Days 34-38) [mm^3] | tumor volume after decrease (end value) ([4]; Days 34-38, recorded to day 43) [mm^3] | tumor volume remained at [5] [mm^3] | CDK1 specific activity (A1), divided by the bigger raw value [6] | CDK1 specific activity (A1), raw value [6] | CDK1 specific activity (A1), divided by the bigger raw value (CDK1 in tumor of T47D) | CDK1 specific activity (A1), raw value (CDK1 in tumor of T47D) | Response rate [7] | Response rate [8] | Response rate (various lung cancers) | affinity for the microtubule site relative to paclitaxel (microtubule site) [fold]
CC(=O)O[C@H]1C(=O)[C@@]2(C)[C@H]([C@H](OC(=O)c3ccccc3)[C@]3(O)C[C@H](OC(=O)[C@H](O)[C@@H](NC(=O)c4ccccc4)c4ccccc4)C(C)=C1C3(C)C)[C@]1(OC(C)=O)CO[C@@H]1C[C@@H]2O [paclitaxel] | resistant | susceptible | susceptible | resistant | at least 80% | dramatic increase | high | 460 | 120 | 350 | 1.0 | 3.0 mU/ng of CDK1 | 0.067 | 0.2 mU/ng of CDK1 | 19-36% | 27-62% | 21-37% | 
CC(=O)O[C@@]12CO[C@@H]1C[C@H](O)[C@@]1(C)C(=O)[C@H](O)C3=C(C)[C@@H](OC(=O)[C@H](O)[C@@H](NC(=O)OC(C)(C)C)c4ccccc4)C[C@@](O)([C@@H](OC(=O)c4ccccc4)[C@H]21)C3(C)C [docetaxel, (2R,3S)-N-carboxy-3-phenylisoserine, N-tert-butyl ester, 13-ester with 5b-20-epoxy-12a,4,7b,10b,13a-hexahydroxytax-11-en-9-one 4-acetate 2-benzoate, trihydrate] |  |  |  |  |  |  |  |  |  |  |  |  |  |  |  |  |  | 1.9
